The results in this text go back to a melting point compilation (Tetko et al.; mined from patent text by program, amines drawn as free bases though some values may be those of a salt).

For `N#CN1CCN(c2nn(-c3ccccc3)c3ccccc23)CC1`, the melting point was in the range of 118 to 120 °C. Next, `Cc1cc(C(=O)O)ccc1C1=CCCCC1`: 173 to 175 °C; `Cc1c(CC(=O)O)c2cc(OCc3csc(-c4ccc(Cl)cc4)n3)ccc2n1Cc1ccc(Cl)cc1`: 145 to 146 °C; `CC(=O)NCc1ccc(CN2CCN(c3cnccn3)CC2)cc1`: 118 to 119 °C. In the case of `Cc1cc(SCc2cccc(C(F)(F)F)c2)c(C)cc1N` it was 58 to 60 °C; in that of `CCCCNC(=O)NS(=O)(=O)c1ccc(N2CCC(NC[C@H](O)c3ccc(O)c(NS(C)(=O)=O)c3)CC2)cc1`, 100 to 102 °C; in that of `C#CC(C)(C)CCOc1ccc(Cl)cc1`, 42 to 45 °C.

`CCCCC1OC(=O)COC1=O` (configuration not stated) registered a melting point of 37 to 39 °C. Molecule `COCCNC(=O)c1cccc(-c2cccc3oc(Cc4ccc(F)c(F)c4)cc23)c1` registered a melting point of 83 to 84 °C. In the case of `COc1ccc([C@H]2CCCC[C@H]2NC(=O)c2ccc(C(=O)c3ccccc3)cc2)cc1OC` it was 119 to 122 °C; in that of `COc1cccc(-c2cc3ccc(C#N)cc3o2)c1`, 148 to 150 °C. Next, `CCOC(=O)C1=NCC(C)(C)c2cc(OC)c3c(c21)CC(C)(C)O3`: 117 to 121 °C; `CCn1ncc2c(NCC3CCCCC3)c3cc(OC)ccc3nc21`: 235 to 237 °C; `c1ccc2c(c1)C[C@H]1Cc3ccccc3[C@H]1O2` (relative stereo): 59 to 60 °C. In the case of `CCOC(=O)c1cn(C(C)(C)C)c2nc(N3CC[C@H](N)C3)c(F)cc2c1=O` it was 255 °C; in that of `COc1ccc(C=O)cc1OC1CC2CCC1C2` (configuration not stated), 75.5 to 79.5 °C. As to `COc1ccc(N2N=C(N)CC2c2ccccc2)cc1` (configuration not stated), the melting point lay within 164 to 166 °C. In the case of `CN(CCOc1ccc(CC(F)C(=O)O)cc1)c1nc2ccccc2o1` (configuration not stated) it was 146 to 148 °C; in that of `COc1ccc(-c2cc3ccccc3[nH]2)cc1NC(N)=S`, 188 to 191 °C; in that of `COc1ccccc1-c1ccccc1C#N`, 54 to 55 °C. In the case of `CS(=O)(=O)NCCS(=O)(=O)N1CCN(S(=O)(=O)c2ccc(-c3ccc(C(F)(F)F)cc3)s2)[C@@H](C(=O)NO)C1` it was 105 to 108 °C; in that of `CC(C)(C)[Si](C)(C)Oc1ccc([N+](=O)[O-])cc1`, 36 to 38 °C. Next, `O=C1NC(=O)C(c2c[nH]c3ccccc23)=C1C(=O)c1cn2c3c(cccc13)CCC2`: over 300 °C; `CCOC(=O)CC(=O)c1cc(C#N)ccc1F`: 55 to 60 °C. In turn, `CCCn1c(N)c(NC(=O)C2(NC(=O)C(F)(F)F)CCCC2)c(=O)n(CCC)c1=O` registered a melting point of 203 to 204 °C. Next, `O=C1CN=C(c2ccccc2)c2cc(C(=O)c3ccc(Cl)cc3)ccc2N1`: 230 °C; `COc1ccc(/C=N/N2CCCCC2)cc1OC1CCCC1`: 81 to 82 °C; `[N-]=[N+]=Nc1c([N+](=O)[O-])cnn1-c1c(Cl)cc(C(F)(F)F)c(Cl)c1Cl`: 84 to 88 °C.

`CCCCCCC(=O)N(CCCCn1ccnc1)C1=Nc2cccc3cccc1c23` showed a melting point of 82 to 84 °C. In the case of `O=C(O)Cc1ccc2c(c1)C(=O)c1cc(Cl)ccc1CO2` it was 169 to 171 °C. In the case of `CC(=O)NNC(=O)c1cccc(I)c1` it was 156 to 158 °C; in that of `Cc1c(O)cccc1C(=O)N[C@@H](Cc1ccccc1)[C@H](O)C(=O)N1CSC(C)(C)[C@H]1C(=O)N[C@H]1CCSc2ccccc21`, 125 to 127 °C; in that of `CNC(=O)N1CCC(C(c2ccc(F)cc2)N(Cc2ccc(F)cc2)C(=O)NC)CC1` (configuration not stated), 120 to 162 °C. Next, `CCCCc1ccc(COC(=O)NC2CN3CCC2CC3)cc1` (configuration not stated): 174 to 175 °C; `N#Cc1c(N2CCc3ccccc3CC2)nc(NCCCOc2ccccc2)[nH]c1=O`: 175 to 180 °C. On to `Cc1oc(-c2cccs2)nc1COc1ccc(CON=C(CCCCC(=O)O)c2ccccc2)cc1`, for which the melting point was in the range of 101 to 102 °C. In the case of `COc1ccc(C2=NN(Cn3nnc4ccccc43)C(=O)[C@H]3CCCC[C@@H]23)cc1OC` (relative stereo) it was 173 to 178 °C; in that of `CN(CC=C(F)C(F)(F)C(F)(F)F)CCCCCC1Cc2cc(O)ccc2C2C(F)CC3(C)C(O)CCC3C12` (configuration not stated), 122 °C. Next, `COc1ccc(S(=O)(=O)C(CCCCc2ccccc2)CC(=O)NO)cc1OC` (configuration not stated): 157 to 159 °C; `O=C(Nc1ccccc1)Nc1nc(=O)n(S(=O)(=O)c2ccccc2)cc1F`: 210 to 214 °C; `CC(C)Oc1ccc(C2Cc3ccccc3C(=O)N2C)cc1` (configuration not stated): 115 to 116 °C. In the case of `CC(C)(C)CC(C)(C)c1cc(-c2cc(C(C)(C)CC(C)(C)C)cc(-n3nc4ccccc4n3)c2O)c(O)c(-n2nc3ccccc3n2)c1` it was 209 to 211 °C; in that of `O=C(O)Cc1ccc(OCc2ccc3oc([N+](=O)[O-])c(-c4ccccc4)c3c2)cc1`, 179 to 180 °C. Regarding `COC(=O)c1cc(I)c(O)c(C(C)(C)C)c1`, the melting point was determined as 67 °C. In the case of `O=C(O)CCC(CSc1ccc2ccccc2c1)C(=O)O` (configuration not stated) it was 140 to 142 °C; in that of `COC(=O)c1cc(C(C)=O)c(OC(C)=O)cc1NC(=O)C(F)(F)F`, 130 to 131 °C.

With `Fc1ccc(-c2[nH]nc(C3=C[C@@H]4C[C@@H](c5ccccc5)CN4CC3)c2-c2ccncc2)cc1Cl`, the melting point is 179 to 180 °C.

Molecule `CNc1cc(Oc2cccc(C(F)(F)F)c2)nc(C(=O)O)c1` yielded a melting point of 66 to 68 °C. Next, `CON(Cc1nc2c(N)nc3cc(OCc4ccccc4)ccc3c2n1CC1CCOCC1)S(C)(=O)=O`: 195 to 197 °C; `COc1cc(C=CC=O)ccc1OC(C)C`: 93 to 94 °C.

In the case of `COc1ccc2c(c1)c(C1CCN(Cc3cccc(C(=O)O)c3)CC1)cn2CCc1ccsc1`, the melting point was in the range of 217 to 218 °C. In the case of `CNS(=O)(=O)c1cc(-c2ccc(C(F)(F)F)n(C)c2=O)c(F)cc1Cl` it was 150 to 151 °C.

Take `O=C(O)c1cccc(-c2nc(-c3ccccc3F)no2)c1`: the melting point was 233 to 234 °C.

Regarding `O=C(Nc1c(Cl)cnn1-c1c(F)c(F)c(C(F)(F)F)c(F)c1F)C(Cl)Cl`, the melting point fell in the range of 115 to 116 °C. Next, `O=[N+]([O-])c1c(Cl)c(Cl)cc2c1OC(F)(F)O2`: 29 to 30 °C; `Fc1cccc(F)c1C1=NC(C2(OC(F)(F)F)C=CC(c3ccccc3)=CC2)CS1` (configuration not stated): 85 to 86 °C. Molecule `C[C@@H]1CCCN1CCCOc1ccc(-c2ccc(=O)[nH]n2)cn1` had a melting point of 178 to 181 °C.

For `Cc1ccc2c(-c3ccccc3)c([N+](=O)[O-])oc2c1`, the melting point is 142 to 144 °C. In the case of `Cc1cc(O)c(S(=O)Cc2ccccc2F)c(=O)o1` (configuration not stated) it was 115 to 116 °C. Next, `CCCCCCCCCCCCCCCCOCC(O)COC(c1ccccc1)(c1ccccc1)c1ccccc1` (configuration not stated): 49 °C.

The molecule `OC1CSC(Oc2ccc(-c3ccco3)nc2)C(O)C1O` (configuration not stated) showed a melting point of 146 °C. Molecule `CNC(=O)c1ccnc(NC(=O)N2CCC3(CCc4ccc(F)cc4O3)CC2)c1` yielded a melting point of 177 to 179 °C.
